From patent publication US4407799A, “2-Substituted-phenyl-1,3-perhydrothiazine-4-one” (priority 1980, dated 1983)

Assays:
[1] = test system: duodenal peptic ulcer due to acetic acid; experiment: Effect on peptic ulcer due to acetic acid (duodenal ulcer); format: in vivo, male rats; conditions: 100 mg/kg, oral, rats; for Ulcer coefficient: 3 times a day for 10 days from third day; for Rate of suppression of ulcer: 3 times a day for 10 days, versus control
Description: The inventors of the present invention, taking into account of these situations, added to the above-mentioned method of evaluation the effect of accelerating the cure of the peptic ulcer by orally administering the present compound and a commercialized anti-peptic ulcer medicine, respectively to rats to which duodenal peptic ulcer due to acetic acid (refer to Okabe, 1971) considered to be most closely resembling to human peptic ulcer has been artificially formed.
Following the method of Okabe et al (refer to Amer. J. Dig. Dis., 16, […]), 6 groups (15 animals per group) of male rats weighing 240 to 260 g were subjected to laparotomy under ether anesthesia in which a metal circular frame was placed on the serosa at a distance of 5 to 7 mm from the duodenal pylorus, 0.06 ml of glacial acetic acid was poured into the frame. After 30 seconds, the liquid containing the acetic acid was removed and then the frame was removed. The test compound suspended in an aqueous 0.5% solution of carboxymethylcellulose was orally administered to the rat 3 times a day from the third day of the operation for consecutive 10 days. To the control group, only the solution of carboxymethylcellulose was administered. After the administration was over, the rats were sacrificed with ether, and their duodenum was removed to observe under a microscope for anatomy. The length and width of the thus-formed ulcer were measured and their product (expressed with mm^2) was recorded as the ulcer coefficient.
By the way, the above-mentioned experimental model has been highly evaluated internationally because the thus-formed ulcer is scarcely curable in nature and the histopathological change of the ulcer lesion closely resembles to that of human chronic ulcer as compared to the method of cautery-ulcer (refer to Skoryna, 1958) and the method of crumping-cortisone (refer to Umehara, 1965).

[2] = test system: peptic ulcer due to pyloric ligation; experiment: Effect on peptic ulcer due to pyloric ligation; format: in vivo, male rats; conditions: 100 mg/kg, intraperitoneal, rats; for Ulcer coefficient: just after pyloric ligation, 15 hours; for Rate of suppression of ulcer: pyloric ligation, versus control
Experimental: Six groups (10 animals per group) of male rats weighing 180 to 200 g were subjected to ligation of their pyloruses under ether-anesthesia after fasting for 48 hours according to the method of Shay et al. (refer to Gastroenterology, 5, page 43 (1945)).
Just after subjecting to ligation, each of the present compound suspended in an aqueous physiological saline solution was intraperitoneally administered to each rat, the control being injected with an aqueous physiological saline solution. Then, after 15 hours of fasting without taking water, the rats were sacrificed with ether and their stomachs were removed to examine under a microscope for anatomy. The length and width of the thus-formed ulcer in the stomach were determined and expressed by the product (mm^2), and the total sum of the products was represented as the ulcer coefficient.

[3] = Acute toxicity test, oral; set-up: species or system Female ICR-mice; conditions: mouse, in vivo, mortality observed for a week, Litchfield-Wilcoxon
Experimental: Female ICR-mice of body weight of 20 to 24 g, 5 weeks after birth were used.
Eight animal per group were kept in a transparent polycage at room temperature of 23°±1° C., and RH of 60 to 70%.
After minutely pulverizing each one of the present compounds, the pulverized compound was suspended in an aqueous 5% sodium carboxymethylcellulose solution containing 20% of Tween-80. The aqueous suspension was forcibly orally administered by a metal stomach tube, the dose rate having been adjusted by changing the concentration of the present compound in the aqueous suspension.
In some mortal cases, the rat's spontaneous movement was lowered with the reduction of general tension and the rats died as they were.

[4] = test system: peptic ulcer; conditions: cited from earlier work

| Compound | Ulcer coefficient [1] | Rate of suppression of ulcer [1] | Ulcer coefficient [2] | Rate of suppression of ulcer [2] | LD50 at 168 h [3] | Side effects [4] | Accelerating effect on ulcer-curing ([4]; commercialized medicine, background) |
| --- | --- | --- | --- | --- | --- | --- | --- |
| COc1cc(C2NC(=O)CCS2)cc(OC)c1OC (centres unmarked) [Compound 1, 2-(3,4,5-trimethoxyphenyl)-1,3-perhydrothiazine-4-one] | 2.5 mm^2 | 67.1% | 9.3 mm^2 | 74.9 | 5400 mg/kg | – | – |
| CC(C)=CCCC(C)=CCCC(C)=CCCC(=O)OCC=C(C)CCC=C(C)C [Positive control, 3,7dimethyl-2,6-octadienyl-5,9,13-trimethyl-4,8,12-tetradecatrienoate, reference compound] | 6.1 mm^2 | 20.0% | 32.5 mm^2 | 12.2 | – | – | – |
| COc1ccc(C2NC(=O)CCS2)cc1 (centres unmarked) [Compound 4, 2-(4-methoxyphenyl)-1,3-perhydrothiazine-4-one] | 1.3 mm^2 | 82.8% | 2.0 mm^2 | 94.5 | > 8000 mg/kg | – | – |
| COc1ccc(C2NC(=O)CCS2)cc1OC (centres unmarked) [Compound 2, 2-(3,4-dimethoxyphenyl)-1,3-perhydrothiazine-4-one] | 2.0 mm^2 | 73.6% | 1.9 mm^2 | 94.3 | > 8000 mg/kg | – | – |
| COc1ccccc1C1NC(=O)CCS1 (centres unmarked) [Compound 3, 2-(2-methoxyphenyl)-1,3-perhydrothiazine-4-one] | 1.5 mm^2 | 80.2% | 2.4 mm^2 | 93.5 | > 8000 mg/kg | – | – |
| CC1(C)[C@@H](OC(=O)CCC(=O)O)CC[C@]2(C)[C@H]3C(=O)C=C4[C@@H]5C[C@@](C)(C(=O)O)CC[C@]5(C)CC[C@@]4(C)[C@]3(C)CC[C@@H]12 [carbenoxolone] | – | – | – | – | – | aldosterone-like side effects to cause hypertension and weakening of muscular function | excellent accelerating effect on the ulcer-curing |
